Measured values from ChEMBL document CHEMBL1687702, “Discovery of New Human A(2A) Adenosine Receptor Agonists: Design, Synthesis, and Binding Mode of Truncated 2-Hexynyl-4'-thioadenosine” (ACS Med Chem Lett, 2010).

Columns and labels:
[1] = target: T1, Adenosine receptor A1 (Homo sapiens) (UniProt P30542); test: Displacement of [3H]CCPA from human adenosine A1 receptor expressed in CHO cells at 10 uM; assay type: cell-based
T1 sequence (whole entry): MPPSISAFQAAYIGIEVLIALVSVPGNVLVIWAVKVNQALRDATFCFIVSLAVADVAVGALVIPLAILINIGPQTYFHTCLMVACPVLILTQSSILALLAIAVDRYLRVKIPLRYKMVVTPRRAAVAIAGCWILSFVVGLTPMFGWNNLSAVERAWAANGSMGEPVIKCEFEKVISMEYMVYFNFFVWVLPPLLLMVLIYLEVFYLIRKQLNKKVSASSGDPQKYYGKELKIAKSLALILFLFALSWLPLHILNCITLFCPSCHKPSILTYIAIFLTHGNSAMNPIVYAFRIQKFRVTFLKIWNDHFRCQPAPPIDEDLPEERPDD

[2] = target: T2, Adenosine receptor A2a (Homo sapiens, UniProt P29274); test: Displacement of [3H]CGS21680 from human adenosine A2A receptor in HEK293 cells at 10 uM; assay type: cell-based
[3] = target: T3, Adenosine receptor A3 (Homo sapiens, UniProt P0DMS8); test: Displacement of [125I]I-AB-MECA from human adenosine A3 receptor expressed in CHO cells […]; assay type: cell-based
T3 sequence (P0DMS8 whole entry): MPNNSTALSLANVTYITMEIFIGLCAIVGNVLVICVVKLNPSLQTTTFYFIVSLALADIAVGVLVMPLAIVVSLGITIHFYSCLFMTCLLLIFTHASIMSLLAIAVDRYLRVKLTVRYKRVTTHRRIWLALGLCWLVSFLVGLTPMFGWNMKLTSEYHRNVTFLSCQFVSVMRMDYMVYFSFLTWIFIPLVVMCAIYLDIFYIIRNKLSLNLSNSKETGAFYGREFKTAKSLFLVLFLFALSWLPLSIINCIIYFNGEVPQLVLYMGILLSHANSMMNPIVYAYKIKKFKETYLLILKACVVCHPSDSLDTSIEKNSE

[4] = target: T2, Adenosine receptor A2a; test: Displacement of [3H]CGS21680 from human adenosine A2A receptor in HEK293 cells; assay type: cell-based
[5] = target: T4, Adenosine receptor A3 (Homo sapiens) (UniProt P0DMS8); test: Antagonistic activity at human adenosine A3 receptor expressed in CHO cells assessed as inhibition of Cl-IB-MECA mediated cyclic AMP production by Schild assay; assay type: functional, cell-based
T4 sequence (whole entry): T3 sequence (P0DMS8 whole entry)

[6] = target: T2, Adenosine receptor A2a; test: Agonist activity at human adenosine A2A receptor expressed in CHO cells by cyclic AMP functional assay; assay type: cell-based
[7] = target: T5, Adenosine receptor A2b (Homo sapiens, UniProt P29275); test: Agonist activity at human adenosine A2B receptor expressed in CHO cells by cyclic AMP functional assay; assay type: cell-based
T5 sequence (P29275 whole entry): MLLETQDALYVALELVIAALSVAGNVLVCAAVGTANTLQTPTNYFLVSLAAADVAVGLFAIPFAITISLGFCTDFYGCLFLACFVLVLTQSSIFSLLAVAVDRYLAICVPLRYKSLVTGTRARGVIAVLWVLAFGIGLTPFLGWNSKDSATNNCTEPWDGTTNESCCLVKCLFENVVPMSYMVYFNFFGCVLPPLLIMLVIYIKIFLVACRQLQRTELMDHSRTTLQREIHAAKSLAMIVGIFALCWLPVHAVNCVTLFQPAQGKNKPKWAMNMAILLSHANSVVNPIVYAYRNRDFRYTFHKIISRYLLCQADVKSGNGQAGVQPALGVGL

T2 sequence (P29274 whole entry): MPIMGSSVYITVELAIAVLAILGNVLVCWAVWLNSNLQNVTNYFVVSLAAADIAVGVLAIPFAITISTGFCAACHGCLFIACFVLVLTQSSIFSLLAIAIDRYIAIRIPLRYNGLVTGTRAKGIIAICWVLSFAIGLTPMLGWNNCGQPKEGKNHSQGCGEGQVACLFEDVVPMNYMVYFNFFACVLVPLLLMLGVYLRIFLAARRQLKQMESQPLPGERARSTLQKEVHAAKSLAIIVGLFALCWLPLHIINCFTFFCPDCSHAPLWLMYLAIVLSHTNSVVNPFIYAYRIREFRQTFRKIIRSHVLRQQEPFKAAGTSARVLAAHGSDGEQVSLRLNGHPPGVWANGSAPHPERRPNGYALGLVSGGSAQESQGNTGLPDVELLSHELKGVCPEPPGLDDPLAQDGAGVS

Row | inhibition [1] [%] | inhibition [2] [%] | Ki [3] [nM] | Ki [4] [nM] | Kb [5] [nM] | EC50 [6] [nM] | EC50 [7] [µM] | SMILES
1 | 49.3 | 46.5 | 20 |  |  |  |  | CCCCC#Cc1nc2c(N)ncnc2n1[C@@H]1SC[C@@H](O)[C@H]1O
2 | 3.7 | 22.8 | 259 |  |  |  |  | CCCC/C=C/c1nc2c(N)ncnc2n1[C@@H]1SC[C@@H](O)[C@H]1O
3 | 16.2 | 95.9 | 13.2 | 72 |  |  |  | CCCC/C=C/c1nc(N)c2ncn([C@@H]3SC[C@@H](O)[C@H]3O)c2n1
4 | 38.9 | 97.2 |  |  | 1.69 | 12 | 10 | CCCCC#Cc1nc(N)c2ncn([C@@H]3SC[C@@H](O)[C@H]3O)c2n1
